Marks after values point to notes of the source that are not given here.
How the values were obtained:
[1] = Solubility in DCM/Methanol mixtures; format: physicochemical
Experimental: The solubility was evaluated on various ratio of DCM and Methanol mixtures.

[2] = Polymorph screening (equilibration, anti-solvent, slow evaporation, slow cooling, temperature cycling, heating-cooling; XRPD and SFC); format: physicochemical
Experimental: This polymorph screening program of compound I-1 free form was performed with two batches of the pure enantiomer. Both batches are crystalline and is assigned as Form A. The polymorphic behaviors of the enantiomer were investigated by equilibration at 25° C. and 50° C., equilibration under a temperature cycle, crystallization from hot saturated solutions by slow cooling, slow evaporation, precipitation by addition of anti-solvent, and DSC heating-cooling cycle experiments. Relative stability of identified polymorphs was investigated by competitive slurry experiments.
About 50 mg of I-1 Form A was weighed into a 2 mL glass vial and equilibrated in suitable amount of solvents (pretreated by molecular sieves) at 25° C. for 2 weeks with a stirring plate and with protection from light. Obtained suspensions were filtered with 0.45 μm nylon membrane and the solid parts (wet cake) were investigated by XRPD. When differences were observed, additional investigations were performed (e.g. DSC, TGA, ^1H-NMR, SFC).
About 50 mg of I-1 Form A was weighed into 2 mL glass vials and equilibrated in suitable amount of solvents (pretreated by molecular sieves) at 50° C. for 10 days with a stirring plate and with protection from light. Obtained suspensions were filtered with 0.45 μm nylon membrane and the solid parts (wet cake) were investigated by XRPD. When differences were observed, additional investigation was performed (e.g. DSC, TGA, ^1H-NMR, SFC).
I-1 Form A was dissolved in a good solvent. […] The solvents used were pretreated by molecular sieve. Precipitates were collected by filtration. The solid part (wet cake) was investigated by XRPD. […] When differences were observed, additional investigations were performed (e.g. DSC, TGA, ^1H-NMR, SFC).
Based on approximate solubility results, I-1 Form A was dissolved in suitable amount of solvents (pretreated by molecular sieves). Obtained solutions were filtered by 0.45 μm nylon filter. […] Solid residues were examined for their polymorphic form. When differences were observed, additional investigations were performed (e.g. DSC, TGA, ^1H-NMR, SFC).
Approximate 50 mg of batch I-1 Form A were dissolved in the minimal amount of selected solvents (without pretreatment by molecular sieves) at 50° C. Obtained solutions were filtered by 0.45 μm nylon filter. […] Precipitates were collected by filtration. The solid parts (wet cake) were investigated by XRPD. When differences were observed, additional investigations were performed (e.g. DSC, TGA, ^1H-NMR, SFC). When no precipitation was obtained or only a few solids were obtained, the solutions were placed at 5° C. for crystallization.
About 50 mg of I-1 Form A was equilibrated in different solvents (pretreated by molecular sieves) under a temperature cycle between 5° C. to 50° C. at a heating/cooling rate of 0.2° C./min for 10 cycles and with protection from light. After 10 cycles, precipitates were collected at 5° C. by filtration. The solid parts (wet cake) were investigated by XRPD. When differences were observed, additional investigations were performed (e.g. DSC, TGA, 1H-NMR, SFC).
Polymorphic behavior of I-1 Form A was investigated by two different heating-cooling cycles of DSC. Cycle 1:30° C. to 280° C. at 10° C./min; 280° C. to −20° C. at 20° C./min; reheat to 300° C. at 10° C./min. Cycle 2:30° C. to 280° C. at 10° C./min; 280° C. to-20° C. at 2° C./min; reheat to 300° C. at 10° C./min.

[3] = Stability of the process (III-1 in solution); format: physicochemical
[4] = Stability of III-1 & I-1 solid; format: physicochemical; details: after 38 days; initial 99.0%
[5] = system: PIK3CA-mediated AKT phosphorylation in MCF10A cells overexpressing hotspot PIK3CA mutations (H1047R, E542K, E545K); assay: MCF10A Cell-Based PIK3CA Kinase Assay (CisBio Phospho-AKT (Ser473) HTRF assay); details: Homo sapiens, MCF-10A, 2 hours compound incubation, read-out: Cell - PD - MCF10A H1047R/−−2483 (IC50)
Experimental: Selected compounds of the present disclosure were tested in a MCF10A Cell-Based PIK3CA Kinase Assay, namely the CisBio Phospho-AKT (Ser473) HTRF assay, to measure the degree of PIK3CA-mediated AKT phosphorylation. MCF10A cells (immortalized non-transformed breast cell line) overexpressing hotspot PIK3CA mutations (including H1047R, E542K, and E545K mutations) were used. Cells were seeded at 5,000 cells per well in DMEM/F12 (Thermo Fisher Scientific) supplemented with […], 100 ng/ml Cholera Toxin, 10 μg/mL insulin, and 0.5% horse serum. Once plated, cells were placed in a 5% CO2, 37° C. incubator to adhere overnight.
The following day, compounds were added to the cell plates in 12 doses of 1:3 serial dilutions. The dose response curves were run in duplicate. Compound addition was carried out utilizing an Echo 55 Liquid Handler acoustic dispenser (Labcyte). The cell plates were incubated for 2 hours in a 5% CO2, 37° C. incubator. Following compound incubation, the cells were lysed for 60 min at room temperature. Finally, a 4-hour incubation with the HTRF antibodies was performed at room temperature. All reagents, both lysis buffer and antibodies, were used from the CisBio pAKT S473 HTRF assay kit, as per the manufacturers protocol. Plates were read on an Envision 2105 (Perkin Elmer), and the IC50 values were calculated using Genedata software.

[6] = Before stirring, 3 g product in solution
[7] = dissolved in DCM/MeOH/DMF, concentrated to 3V, 16 h, 40° C.
[8] = dissolved in MeOH, 34 h, 50° C.
[9] = dissolved in MeOH, 42 h, 50° C.
[10] = dissolved in MeOH, 60 h, 50° C.
[11] = dissolved in MeOH, stirred 18 h, 34° C.

## N#Cc1c(-c2cc(NC(=O)c3cc(F)cc(C(F)(F)F)c3)c3c(c2)C(=O)NC3c2cc(F)ccc2Cl)ccc2ncnn12 (racemic) [III-1, N-(3-(2-chloro-5-fluorophenyl)-6-(5-cyano-[1,2,4]triazolo[1,5-a]pyridin-6-yl)-1-oxoisoindolin-4-yl)-3-fluoro-5-(trifluoromethyl)benzamide]
[1]
  solubility in DCM/MeOH=90:10 mixture: limited solubility
[2]; anti-solvent precipitation: MeOH / MTBE(4V), stirred at 25° C. for 23 days, SFC immediately after preparation
  ee %(SFC): ee % (SFC): 2.7%*
[2]; equilibration at 50° C. for 10 days in ACN/water(80:20, v/v), SFC immediately after preparation
  ee %(SFC): ee % (SFC): 50.7%*.
[2]; equilibration at 50° C. for 10 days in Acetone/water(60:40, v/v), SFC immediately after preparation
  ee %(SFC): ee % (SFC): 56.9%*
[2]; equilibration at 50° C. for 10 days in EtOH/water(50:50, v/v), SFC after preparation for about 12 h
  ee %(SFC): ee % (SFC): 75.0%#;
[2]; equilibration at 50° C. for 10 days in EtOH/water(50:50, v/v), SFC immediately after preparation
  ee %(SFC): ee % (SFC): 76.9%*,
[2]; equilibration at 50° C. for 10 days in Methanol, SFC immediately after preparation
  ee %(SFC): ee % (SFC): 48.4%*
[2]; slow evaporation from MeOH, SFC immediately after preparation
  ee %(SFC): ee % (SFC): 68.6%*
[2]; solid from crystallization from DMF/Acetone water, SFC immediately after preparation
  ee %(SFC): ee % (SFC): −0.3%*
[3]; [6]
  HPLC/RRT Purity, RRT 1.00 (purity of III-1): 96.23%
  HPLC/RRT Purity, impurity at RRT 0.41: 0.10%
  HPLC/RRT Purity, impurity at RRT 0.94: 0.62%
  HPLC/RRT Purity, impurity at RRT 1.37: 1.98%
  HPLC/RRT Purity, impurity at RRT 1.38: 0.31%
[3]; DCM/MeOH/DMF concentrated to 3V, 17 h at 40° C.
  impurity @RRT 1.26 generated: 0.15%
[3]; MeOH, over 18 h at 34° C.
  impurity @RRT 0.74 generated: 0.15%
  purity after stirring in MeOH: 96.0%
[3]; MeOH, over 60 h at 50° C.
  impurity @RRT 0.74: 3.44%
[3]; concentrated to 3V under 40° C., stirred for 17 h at 40° C.
  purity after stirring in DCM/MeOH/DMF: 94.57%
[3]; [7]
  HPLC/RRT Purity, RRT 1.00 (purity of III-1): 94.57%
  HPLC/RRT Purity, impurity at RRT 0.41: 0.11%
  HPLC/RRT Purity, impurity at RRT 0.74: 0.03%
  HPLC/RRT Purity, impurity at RRT 0.94: 0.68%
  HPLC/RRT Purity, impurity at RRT 1.26: 0.33%
  HPLC/RRT Purity, impurity at RRT 1.37: 2.51%
  HPLC/RRT Purity, impurity at RRT 1.38: 0.46%
[3]; [8]
  HPLC/RRT Purity, RRT 1.00 (purity of III-1): 93.53%
  HPLC/RRT Purity, impurity at RRT 0.41: 0.15%
  HPLC/RRT Purity, impurity at RRT 0.74: 2.49%
  HPLC/RRT Purity, impurity at RRT 0.94: 0.67%
  HPLC/RRT Purity, impurity at RRT 0.96: 0.20%
  HPLC/RRT Purity, impurity at RRT 1.26: 0.19%
  HPLC/RRT Purity, impurity at RRT 1.37: 2.13%
  HPLC/RRT Purity, impurity at RRT 1.38: 0.26%
[3]; [9]
  HPLC/RRT Purity, RRT 1.00 (purity of III-1): 92.67%
  HPLC/RRT Purity, impurity at RRT 0.41: 0.17%
  HPLC/RRT Purity, impurity at RRT 0.74: 2.98%
  HPLC/RRT Purity, impurity at RRT 0.94: 0.67%
  HPLC/RRT Purity, impurity at RRT 0.96: 0.25%
  HPLC/RRT Purity, impurity at RRT 1.26: 0.38%
  HPLC/RRT Purity, impurity at RRT 1.37: 2.15%
  HPLC/RRT Purity, impurity at RRT 1.38: 0.20%
[3]; [10]
  HPLC/RRT Purity, RRT 1.00 (purity of III-1): 91.45%
  HPLC/RRT Purity, impurity at RRT 0.41: 0.19%
  HPLC/RRT Purity, impurity at RRT 0.74: 3.45%
  HPLC/RRT Purity, impurity at RRT 0.94: 0.67%
  HPLC/RRT Purity, impurity at RRT 0.96: 0.40%
  HPLC/RRT Purity, impurity at RRT 1.26: 0.58%
  HPLC/RRT Purity, impurity at RRT 1.37: 2.26%
  HPLC/RRT Purity, impurity at RRT 1.38: 0.23%
[3]; [11]
  HPLC/RRT Purity, RRT 1.00 (purity of III-1): 95.98%
  HPLC/RRT Purity, impurity at RRT 0.41: 0.10%
  HPLC/RRT Purity, impurity at RRT 0.74: 0.15%
  HPLC/RRT Purity, impurity at RRT 0.94: 0.59%
  HPLC/RRT Purity, impurity at RRT 1.37: 2.33%
  HPLC/RRT Purity, impurity at RRT 1.38: 0.29%
[4]
  purity of solid after storage: 99.1%

## [2H][C@@]1(c2cc(F)ccc2Cl)NC(=O)c2cc(-c3ccc4ncnn4c3C#N)cc(NC(=O)c3cc(F)cc(C(F)(F)F)c3)c21 [IV-2]
[5]
  IC50: ≤ 1000 nM
